For ten compounds, IC50 results are on record in ChEMBL document CHEMBL5143734, “Seco-Lupane Triterpene Derivatives Induce Ferroptosis through GPX4/ACSL4 Axis and Target Cyclin D1 to Block the Cell Cycle” (J Med Chem, 2022).

What is called IC50 is the concentration that inhibits the measured activity by half.

Holding throughout (format): functional, cell-based
Test [1] concerns HepG2. The experiment in a line: Cytotoxicity against human HepG2 cells assessed as reduction in cell viability by CCK-8 assay. For orientation: Formazan colour is commonly taken as a measure of viable cells.
Test [2] has as its system A549. Kind of test: Cytotoxicity against human A549 cells assessed as reduction in cell viability by CCK-8 assay.
Test [3] relates to MCF7. The experiment in a line: Cytotoxicity against human MCF7 cells assessed as reduction in cell viability by CCK-8 assay.
Test [4] has as its system PANC-1. Kind of test: Cytotoxicity against human PANC-1 cells assessed as reduction in cell viability by CCK-8 assay.
The test system of test [5] is PC-3M. Kind of test: Cytotoxicity against human PC-3M cells assessed as reduction in cell viability by CCK-8 assay.

In the case of `C=C(C)[C@@H]1CC[C@]2(C(=O)OCCCCCn3cnc(C)c3)CC[C@]3(C)[C@H](C[C@H]4OC(=O)C[C@@H](O)[C@]5(C)[C@@H]4[C@@]3(C)CC[C@H]5C(=C)C)[C@@H]12`, the IC50 in test [1] was 10.6 µM; in test [2], 12.9 µM; in test [3], 95.8 µM; in test [4] it was 26.5 µM; in test [5], 14.8 µM.
Turning to `C=C(C)[C@@H]1CC[C@]2(C(=O)OCCCCCCCCCCn3ccnc3C)CC[C@]3(C)[C@H](C[C@H]4OC(=O)C[C@@H](O)[C@]5(C)[C@@H]4[C@@]3(C)CC[C@H]5C(=C)C)[C@@H]12`, the IC50 in test [1] is 3.02 µM; in test [2], 11.7 µM; in test [3], 23.5 µM; in test [4], 10.1 µM; in test [5], 8.63 µM.
As to `C=C(C)[C@@H]1CC[C@]2(C(=O)OCCCn3cncn3)CC[C@]3(C)[C@H](C[C@H]4OC(=O)C[C@@H](O)[C@]5(C)[C@@H]4[C@@]3(C)CC[C@H]5C(=C)C)[C@@H]12`, the concentration for half-maximal inhibition (IC50) in test [1] was > 200 µM; in test [2], 45.2 µM; in test [3] it was 51.2 µM; in test [4], 140 µM; in test [5], 34 µM.
Taken in the same sequence, the figures for `C=C(C)[C@@H]1CC[C@]2(C(=O)OCCCCCCBr)CC[C@]3(C)[C@H](C[C@@H](O)[C@@H]4[C@@]5(C)C(CC(=O)OC)OC(C)(C)C5CC[C@]43C)[C@@H]12` (stereo not given in full) were 22.2 µM, 45.5 µM, 73 µM, 37.5 µM and 29 µM.
Taken in the same sequence, the figures for `C=C(C)[C@@H]1CC[C@]2(C(=O)OCCCCCn3ccnc3C)CC[C@]3(C)[C@H](C[C@@H](O)[C@@H]4[C@@]5(C)C(CC(=O)OC)OC(C)(C)C5CC[C@]43C)[C@@H]12` (stereo not given in full) were 20.2 µM, 34.5 µM, 53.8 µM, 43.1 µM and 37.8 µM.
As to `C=C(C)[C@@H]1CC[C@]2(C(=O)OCCCn3ccnc3)CC[C@]3(C)[C@H](C[C@@H](O)[C@@H]4[C@@]5(C)C(CC(=O)OC)OC(C)(C)C5CC[C@]43C)[C@@H]12` (stereo not given in full), the 50% inhibitory concentration (IC50) in test [1] amounted to 27.2 µM; in test [2], 34.8 µM; in test [3], 73.2 µM; in test [4], 56.5 µM; in test [5] it was 35.6 µM.
Taken in the same sequence, the figures for `C=C(C)[C@@H]1CC[C@]2(C(=O)OCCCCn3cncn3)CC[C@]3(C)[C@H](C[C@H]4OC(=O)C[C@@H](O)[C@]5(C)[C@@H]4[C@@]3(C)CC[C@H]5C(=C)C)[C@@H]12` were 110 µM, 31.3 µM, 46.2 µM, 60.5 µM and 18.1 µM.
Taken in the same sequence, the figures for `C=C(C)[C@@H]1CC[C@]2(C(=O)OCCCCCCn3cncn3)CC[C@]3(C)[C@H](C[C@H]4OC(=O)C[C@@H](O)[C@]5(C)[C@@H]4[C@@]3(C)CC[C@H]5C(=C)C)[C@@H]12` were 23.8 µM, 24.6 µM, 103 µM, 19.5 µM and 56 µM.
In the same order, the values of `C=C(C)[C@@H]1CC[C@]2(C(=O)OCCCCCCCCCCn3cnc(C)c3)CC[C@]3(C)[C@H](C[C@H]4OC(=O)C[C@@H](O)[C@]5(C)[C@@H]4[C@@]3(C)CC[C@H]5C(=C)C)[C@@H]12` are 5.79 µM, 16.7 µM, 35.8 µM, 9.92 µM and 13.9 µM.
Turning to `C=C(C)[C@@H]1CC[C@]2(C(=O)OCCCn3cnc(C)c3)CC[C@]3(C)[C@H](C[C@@H](O)[C@@H]4[C@@]5(C)C(CC(=O)OC)OC(C)(C)C5CC[C@]43C)[C@@H]12` (stereo not given in full), the concentration for half-maximal inhibition (IC50) in test [1] amounted to 21.6 µM; in test [2], 31.5 µM; in test [3] it was 71.9 µM; in test [4], 49.2 µM; in test [5], 30.6 µM.
